Read-outs that look alike come from different tables or passages of the source.
Key:
Assay type in all cases: cell-based
Bacillus cereus mycoides = tested on: Bacillus cereus mycoides; parameters: scale not given here
Pseudomonas aeruginosa = experiment: Wood preservative efficacy against bacteria and yeasts, tryptose agar plates; parameters: key: 0 = growth equal to control, 1 = growth inhibited, 2 = no growth; conditions: 100 ppm in tryptose agar
Summary of the method: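 Compounds were dissolved in 50% ethanol, diluted with sterile water and tested against Pseudomonas aeruginosa inoculated on tryptose agar. Growth was scored against untreated control once the control had grown: 0 = equal growth, 1 = inhibition, 2 = no growth.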

Flavobacterium sp. = experiment: as above; parameters: key: 0 = growth equal to control, 1 = growth inhibited, 2 = no growth
Summary of the method: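 Compounds dissolved in 50% ethanol, diluted with sterile water, incorporated into tryptose agar then inoculated with Flavobacterium sp. Once untreated controls grew sufficiently, scored 0 (growth as control), 1 (inhibition) or 2 (no growth).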

Streptomyces albus = experiment: as above; parameters: key: 0 = growth equal to control, 1 = inhibition, 2 = no growth
Summary of the method: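 Compounds in 50% ethanol diluted with sterile water, tested in tryptose agar inoculated with Streptomyces albus. Growth scored once untreated cultures grew: 0 = as control, 1 = inhibited, 2 = no growth.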

Coniophora puteana = experiment: Wood preservative efficacy against fungi, agar plate colony diameter; parameters: key: 0 = no fungal growth, 1-3 = 25/50/75% of untreated, 4 = equal; conditions: Table 6B
Protocol: (§1) Each plate was inoculated with a spore suspension or with a small piece of agar (1 mm) from the margin of an actively growing colony of the test fungus. The fungi employed are listed below. After incubation at 22° C. and 70% relative humidity during a period long enough to allow significant growth of untreated controls, the diameters of the fungus colonies were measured and scored using the following rating system: 0=free of fungal growth 1=25% of fungal growth compared to untreated 2=50% of fungal growth compared to untreated 3=75% of fungal growth compared to untreated 4=Growth equal to that of untreated The scores measured for wood preservation efficacy of the compounds of this invention are listed in Tables 6a and 6b. In these Tables, the lower numbers are the most preferred species. Coniophora puteana (syn. C. cerebella)

Chaetomium globosum = experiment: as above; conditions: 10 ppm, Table 6B
Protocol: as §1, with “Chaetomium globosum” for “Coniophora puteana (syn. C. cerebella)”

Mucor sp. = experiment: as above; conditions: Table 6B
Protocol: as §1, with “Mucor sp.” for “Coniophora puteana (syn. C. cerebella)”

Aureobasidium pullulans = experiment: as above; parameters: key: 1=25%, 2=50%, 3=75%, 4=100% of untreated growth; lower better; conditions: 10 ppm, Table 6B
Protocol: (§2) The compounds shown in Table 1 were dissolved in 50% ethanol and then diluted with sterile water to give the required concentrations of 1 and 10 ppm in the test agar plates. Malt extract sugar (3%) was added aseptically and uniform distribution was obtained by shaking. Each plate was inoculated with a spore suspension or with a small piece of agar (1 mm) from the margin of an actively growing colony of the test fungus. The fungi employed are listed below. After incubation at 22° C. and 70% relative humidity during a period long enough to allow significant growth of untreated controls, the diameters of the fungus colonies were measured and scored using the following rating system:
(§3) 1=25% of fungal growth compared to untreated
(§4) 2=50% of fungal growth compared to untreated
(§5) 3=75% of fungal growth compared to untreated
(§6) 4=Growth equal to that of untreated
(§7) In these Tables, the lower numbers are the most preferred species.

Penicillium islandicum = experiment: as above; parameters: key: 1 = 25%, 2 = 50%, 3 = 75%, 4 = 100% of untreated fungal growth; conditions: 10 ppm, Table 6B
Protocol: as §2, §3, §4, §5, §6, §7

Aspergillus niger = experiment: as above; conditions: 10 ppm, Table 6B
Protocol: as §1, with “Aspergillus niger” for “Coniophora puteana (syn. C. cerebella)”

Aspergillus flavus = experiment: as above; conditions: 10 ppm, Table 6B
Protocol: as §1, with “Aspergillus flavus” for “Coniophora puteana (syn. C. cerebella)”

SMILES | Score of bactericidal activity, B. cereus mycoides (Bacillus cereus mycoides; 10 ppm in tryptose agar) | Score of bactericidal activity, B. cereus mycoides (Bacillus cereus mycoides; 100 ppm in tryptose agar) | Score of bactericidal activity, P. aeruginosa (Pseudomonas aeruginosa) | Score of bactericidal activity, Flavobacter (Flavobacterium sp.; 10 ppm in tryptose agar) | Score of bactericidal activity, Flavobacter (Flavobacterium sp.; 100 ppm in tryptose agar) | Score of bactericidal activity, S. albus (Streptomyces albus; 10 ppm in tryptose agar) | Score of bactericidal activity, S. albus (Streptomyces albus; 100 ppm in tryptose agar) | Score of fungicidal activity, C. PUTEANA (Coniophora puteana; 1 ppm) | Score of fungicidal activity, C. PUTEANA (Coniophora puteana; 10 ppm) | Score of fungicidal activity, C. GLOBOSUM (Chaetomium globosum) | Score of fungicidal activity, MUCOR SP (Mucor sp.; 100 ppm) | Score of fungicidal activity, A. PULLULANS (Aureobasidium pullulans) | Score of fungicidal activity, P. ISLANDICUM (Penicillium islandicum) | Score of fungicidal activity, A. NIGER (Aspergillus niger) | Score of fungicidal activity, A. FLAVUS (Aspergillus flavus) | Score of fungicidal activity, MUCOR SP (Mucor sp.; 10 ppm)
CCOC(=O)c1ccc(C2=NOCC[S+]2[O-])cc1 (centres unmarked) [Compound 22] | 2 | 2 | 0 | 1 | 2 | 1 | 2 | 3 (75% of growth compared to untreated control) | 0 | 4 | 0 | 4 | 2 (50% of growth compared to untreated control) | 3 (75% of growth compared to untreated control) | 2 (50% of growth compared to untreated control) | 
C[S+]1CCON=C1c1ccc(C(F)(F)F)cc1 (centres unmarked) [Compound 25] | 2 | 2 | 0 | 1 | 2 | 2 | 2 | 2 (50% of growth compared to untreated control) | 0 | 3 (75% of growth compared to untreated control) | 0 | 3 (75% of growth compared to untreated control) | 1 (25% of growth compared to untreated control) | 0 | 0 | 3 (75% of growth compared to untreated control)
COC(=O)c1cccc(C2=NOCC[S+]2[O-])c1 (centres unmarked) [Compound 26] | 2 | 2 | 0 | 0 | 2 | 0 | 2 |  | 4 | 4 | 2 (50% of growth compared to untreated control) | 4 | 4 | 4 | 4 | 
CCOc1ccc(C2=NOCC[S+]2C)cc1 (centres unmarked) [Compound 28] | 1 | 2 | 0 | 0 | 2 | 1 | 2 |  | 0 | 4 | 1 (25% of growth compared to untreated control) | 4 | 4 | 4 | 3 (75% of growth compared to untreated control) | 

Source: patent publication US6372297B1, “Wood preservative oxathiazines” (Uniroyal Chemical Company, Inc., priority 1993, dated 2002)
